According to patent US20060258630A1, “Method for the prevention and treatment of uveitis” (BioXell S.p.A., priority 2003, published 2006):
“Also recorded” adds a separate entry of the source.

Experiments:
[1] = Determination of maximum tolerated dose (MTD), serum calcium / hypercalcemia; details: female, C57BL/6, mouse, serum, po
Procedure: (§1) The maximum tolerated dose of the vitamin D3 compounds of the invention were determined in eight week-old female C57BL/6 mice (3 mice/group) dosed orally (0.1 ml/mouse) with various concentrations of Vitamin D3 analogs daily for four days. Analogs were formulated in miglyol for a final concentration of 0.01, 0.03, 0.1 0.3, 1, 3, 10, 30, 100 and 300 μg/kg when given at 0.1 ml/mouse p.o. daily. Blood for serum calcium assay was drawn by tail bleed on day five, the final day of the study.

[2] = test system: IFN-γ production in allogeneic PBMC co-culture (MLR); assay: IFN-γ production by allogeneic T cell activation in the mixed leukocyte response (MLR), ELISA; assay type: cell-based; details: 120 h, 5 days, read-out: INF-γ IC50
Procedure: Immature dendritic cells. (DC) were prepared as described in Romani, N. et al. (Romani, N. et al. (1996) J. Immunol. Meth. 196:137). IFN-γ production by allogeneic T cell activation in the mixed leukocyte response (MLR) was determined as described in Penna, G., et al., J Immunol., 164: 2405-2411 (2000).
Briefly, peripheral blood mononuclear cells (PBMC) were separated from buffy coats by Ficoll gradient and the same number (3×10^5) of allogeneic PBMC from 2 different donors were co-cultured in 96-well flat-bottom plates. The vitamin D3 compounds were added to each of the cultures.

[3] = test system: EAU-susceptible B10.RIII mice; assay: Experimental autoimmune uveoretinitis (EAU) induced with IRBP in CFA; assay type: in vivo; details: for Prevention of EAU: administered from day −6 to 2
Source text: EAU an autoimmune disease mediated by Th1-type uveitogenic CD4+ T cells serves as a model for human posterior uveitis. […] EAU development was followed by funduscopy and confirmed by histopathology on eyes collected 21 days after immunization.

[4] = test system: primed lymph node cells (LN); assay: In vitro assay of primed lymph node cells (LN) from EAU mice: proliferation, polarization, cytokine and chemokine release; assay type: cell-based; details: for Inhibition of specific T cell proliferation and T cell polarization: primed lymph node cells, FIG. 4
Source text: It can be concluded that delayed hypersensitivity to IRBP in treated mice is correlated with disease severity. […] Preventive treatment remarkably diminished both IFN-gamma and IL-17 production by LN.
In consistency with disease amelioration, Ag driven chemokine release, such as MIP-1a, Rantes and TARC, is inhibited by Vitamin D3 derivatives as shown in FIG. 5. The further mechanism(s) involved in inhibition of EAU by VDR agonists are being investigated.

female C57BL/6 mice = assay: Determination of maximum tolerated dose (MTD), serum calcium / hypercalcemia; details: for MTD compared with the corresponding parent dihydroxy compound: (2) vs (1), (4) and (5) vs (3); for MTD (mice): oral daily for four days, highest dose without hypercalcemia (serum calcium>10.7 mg/dl)
Procedure: as §1

| Structure (SMILES) | MTD at 4 days [1] | IC50 [2] | MTD (mice) (female C57BL/6 mice) | further results |
| --- | --- | --- | --- | --- |
| C=C1/C(=C\C=C2/CCC[C@]3(C)[C@@H]([C@H](C)CCCC(C)(C)O)CC[C@@H]23)C[C@@H](O)C[C@@H]1O [1,25(OH)2D3, calcitriol, reference compound] | 1 µg/kg | 22 pM |  | Prevention of EAU ([3]; calcitriol 0.5 μg/kg orally): can prevent EAU; also recorded: effectively prevents EAU; Inhibition of specific T cell proliferation and T cell polarization [4]: potent |
| CC(=O)OC1C/C(=C/C=C2\CCC[C@]3(C)C(C(C)C/C=C\C(O)(C(F)(F)F)C(F)(F)F)=CCC23)C[C@@H](OC(C)=O)C1 (stereo partly drawn) [(2), 1,3-Di-O-acetyl-1,25-dihydroxy-16,23Z-diene-26,27-hexafluoro-19-nor-cholecalciferol] |  |  |  | MTD compared with the corresponding parent dihydroxy compound (female C57BL/6 mice): significantly higher |
| CC(CC#CC(O)(C(F)(F)F)C(F)(F)F)C1=CCC2C(=CC=C3CC(O)CC(O)C3)CCCC12C (stereo not drawn) [(3), 1,25-dihydroxy-16-ene-23-yne-26,27-hexafluoro-19-nor-cholecalciferol, reference compound] |  |  | 0.3 µg/kg |  |
| CC(=O)OC1C/C(=C/C=C2\CCC[C@]3(C)C(C(C)CC#CC(O)(C(F)(F)F)C(F)(F)F)=CCC23)C[C@@H](OC(C)=O)C1 (stereo partly drawn) [(4), 1,3-Di-O-acetyl-1,25-Dihydroxy-16-ene-23-yne-26,27-hexafluoro-19-nor-cholecalciferol] |  |  | 10 µg/kg | MTD compared with the corresponding parent dihydroxy compound (female C57BL/6 mice): considerably-greater; also recorded: significantly higher |
| CC(=O)OC1C/C(=C/C=C2\CCC[C@]3(C)C(C(C)CC#CC(OC(C)=O)(C(F)(F)F)C(F)(F)F)=CCC23)C[C@@H](OC(C)=O)C1 (stereo partly drawn) [(5), 1,3,25-Tri-O-acetyl-1,25-Dihydroxy-16-ene-23-yne-26,27-hexafluoro-19-nor-cholecalciferol] |  |  | 3 µg/kg | MTD compared with the corresponding parent dihydroxy compound (female C57BL/6 mice): considerably-greater; also recorded: significantly higher |
| C=C1/C(=C\C=C2/CCC[C@]3(C)C(C(C)CC#CC(C)(C)O)=CCC23)CC(OC(C)=O)C[C@@H]1OC(C)=O (stereo partly drawn) [(7), 1,3-Di-O-acetyl-1,25-dihydroxy-16-ene-23-yne-cholecalciferol] |  |  | 10 µg/kg |  |
| C=C1/C(=C\C=C2/CCC[C@]3(C)C(C(C)C/C=C/C(C)(C)O)=CCC23)CC(OC(C)=O)C[C@@H]1OC(C)=O (stereo partly drawn) [(9), 1,3-Di-O-acetyl-1,25-dihydroxy-16,23E-diene-cholecalciferol] | 3 µg/kg | 13 pM |  |  |
| C=C1/C(=C\C=C2/CCC[C@]3(C)C(C(C)CCCC(C)(C)O)=CCC23)CC(OC(C)=O)C[C@@H]1OC(C)=O (stereo partly drawn) [(11), 1,3-Di-O-acetyl-1,25-dihydroxy-16-ene-cholecalciferol] | 1 µg/kg | 36 pM |  |  |
| C=C1/C(=C\C=C2/CCC[C@]3(C)C(C(C)CC#CC(OC(C)=O)(C(F)(F)F)C(F)(F)F)=CCC23)CC(OC(C)=O)C[C@@H]1OC(C)=O (stereo partly drawn) [(13), 1,3,25-Tri-O-acetyl-1,25-dihydroxy-16-ene-23-yne-26,27-hexafluoro-cholecalciferol] |  |  | 3 µg/kg |  |
| C=C1/C(=C\C=C2/CCC[C@]3(C)C(C(C)CC#CC(O)(C(F)(F)F)C(F)(F)F)=CCC23)CC(OC(C)=O)C[C@@H]1OC(C)=O (stereo partly drawn) [(14), 1,3-Di-O-acetyl-1,25-dihydroxy-16-ene-23-yne-26,27-hexafluoro-cholecalciferol] |  |  | 10 µg/kg |  |
| C=C1/C(=C\C=C2/CCC[C@]3(C)C(C(C)C/C=C/[C@@](C)(O)C(F)(F)F)=CCC23)CC(OC(C)=O)C[C@@H]1OC(C)=O (stereo partly drawn) [(16), 1,3-Di-O-acetyl-1,25-dihydroxy-16,23E-diene-25R,26-trifluoro-cholecalciferol] | 0.3 µg/kg | 51.3 pM |  |  |
| CC(=O)OC1C/C(=C/C=C2\CCC[C@]3(C)C(C(C)CCCC(C)(C)O)=CCC23)C[C@@H](OC(C)=O)C1 (stereo partly drawn) [(18), 1,3-Di-O-acetyl-1,25-dihydroxy-16-ene-19-nor-cholecalciferol] | 3 µg/kg | 3 pM |  |  |
| CC(=O)OC1C/C(=C/C=C2\CCC[C@]3(C)C(C(C)CC#CC(C)(C)O)=CCC23)C[C@@H](OC(C)=O)C1 (stereo partly drawn) [(20), 1,3-Di-O-Acetyl-1,25-dihydroxy-16-ene-23-yne-19-nor-cholecalciferol] | 30 µg/kg | 25 pM |  |  |
| CCC(O)(C#CCC(C)C1=CCC2/C(=C/C=C3/CC(OC(C)=O)C[C@H](OC(C)=O)C3)CCC[C@]12C)CC (stereo partly drawn) [(22), 1,3-Di-O-acetyl-1,25-dihydroxy-16-ene-23-yne-26,27-bishomo-19-nor-cholecalciferol] |  |  | 100 µg/kg |  |
| CC(=O)OC1C/C(=C/C=C2\CCC[C@@]3(C)C2CCC3C2(CC#CC(C)(C)O)CC2)C[C@@H](OC(C)=O)C1 (stereo partly drawn) [(24), 1,3-Di-O-acetyl-1,25-dihydroxy-20-cyclopropyl-23-yne-19-nor-cholecalciferol] | 100 µg/kg | 802 pM |  |  |
| CC(=O)OC1C/C(=C/C=C2\CCC[C@@]3(C)C2CCC3C2(CC#CC(OC(C)=O)(C(F)(F)F)C(F)(F)F)CC2)C[C@@H](OC(C)=O)C1 (stereo partly drawn) [(26), 1,3,25-Tri-O-acetyl-1,25-dihydroxy-20-cyclopropyl-23-yne-26,27-hexafluoro-19-nor-cholecalciferol] |  |  | 10 µg/kg |  |
| CC(=O)OC1C/C(=C/C=C2\CCC[C@@]3(C)C2CCC3C2(CC#CC(O)(C(F)(F)F)C(F)(F)F)CC2)C[C@@H](OC(C)=O)C1 (stereo partly drawn) [(27), 1,3-Di-O-acetyl-1,25-dihydroxy-20-cyclopropyl-23-yne-26,27-hexafluoro-19-nor-cholecalciferol] |  |  | 10 µg/kg |  |
| C=C1/C(=C\C=C2/CCC[C@@]3(C)C2CCC3C2(CC#CC(C)(C)O)CC2)CC(OC(C)=O)C[C@@H]1OC(C)=O (stereo partly drawn) [(29), 1,3-Di-O-acetyl-1,25-dihydroxy-20-cyclopropyl-23-yne-cholecalciferol] |  |  | 30 µg/kg |  |
| CC(=O)OC1C/C(=C/C=C2\CCC[C@@]3(C)C2CCC3C2(C/C=C/C(O)(C(F)(F)F)C(F)(F)F)CC2)C[C@@H](OC(C)=O)C1 (stereo partly drawn) [(31), 1,3-Di-O-acetyl-1,25-dihydroxy-20-cyclopropyl-23E-ene-26,27-hexafluoro-19-nor-cholecalciferol] |  |  | 0.3 µg/kg |  |
| CC(=O)OC1C/C(=C/C=C2\CCC[C@@]3(C)C2CCC3C2(C/C=C\C(O)(C(F)(F)F)C(F)(F)F)CC2)C[C@@H](OC(C)=O)C1 (stereo partly drawn) [(33), 1,3-Di-O-acetyl-1,25-dihydroxy-20-cyclopropyl-23Z-ene-26,27-hexafluoro-19-nor-cholecalciferol] | 10 µg/kg | 99 pM |  |  |
| CC(=O)OC1C/C(=C/C=C2\CCC[C@]3(C)C(C4(CCCC(C)(C)O)CC4)=CCC23)C[C@@H](OC(C)=O)C1 (stereo partly drawn) [(37), 1,3-Di-O-acetyl-1α,25-dihydroxy-16-ene-20-cyclopropyl-19-nor-cholecalciferol] |  |  | 10 µg/kg |  |
| C=C1/C(=C\C=C2/CCC[C@]3(C)C(C4(CCCC(C)(C)O)CC4)=CCC23)CC(OC(C)=O)C[C@@H]1OC(C)=O (stereo partly drawn) [(39), 1,3-Di-O-acetyl-1α,25-hydroxy-16-ene-20-cyclopropyl-cholecalciferol] |  |  | 3 µg/kg |  |
| C=C1/C(=C\C=C2/CCC[C@@]3(C)C2CCC3C(C)CC#CC(C)(C)O)CC(OC(C)=O)C[C@@H]1OC(C)=O (stereo partly drawn) [(41), 1,3-Di-O-acetyl-1,25-dihydroxy-23-yne-cholecalciferol] |  |  | 1 µg/kg |  |
| C=C1/C(=C\C=C2/CCC[C@@]3(C)C2CCC3C2(CCCC(C)(C)O)CC2)C[C@@H](OC(C)=O)C[C@@H]1OC(C)=O (stereo partly drawn) [Compound (35), 1,3-Di-O-acetyl-1,25-dihydroxy-20-cyclopropyl-cholecalciferol] | 30 µg/kg | 2.7 pM |  | Prevention of EAU ([3]; Compound A 10 μg/kg orally, listed as Compound A): can prevent EAU; also recorded: capable of preventing; Inhibition of EAU development, therapeutic treatment ([3]; treatment started 7 days after immunization, listed as Compound A): could inhibit EAU development; also recorded: treating EAU; Inhibition of specific T cell proliferation and T cell polarization [4]: potent; IFN-g production ([4]; therapeutic administration): not; IL-17 production ([4]; therapeutic administration): markedly inhibited |
